ChEMBL document CHEMBL1125803 (J Med Chem, 1991)
Numbered stars: 1 amine (or outer) side, 2 acyl side, 3 side chain; on linkers, the order of the positions; unused ones are H or OH. Square brackets hold non-standard residues; d marks the D form. Peptide text beside a SMILES is read from it. X1 = O=C([C@@H]1CCCN1CC(O)[C@H](Cc1ccccc1)N[*:1])[*:2]

How the values were obtained:
[1] = target: T1, Human immunodeficiency virus type 1 protease (Human immunodeficiency virus 1, UniProt Q72874); assay: (§1) Binding activity against HIV-1 Protease
[2] = target: T1, Human immunodeficiency virus type 1 protease; assay: as §1; remark: listed apart in the source

Compound | IC50 [1] | IC50 [2]
CC(C)(C)OC(=O)[C@@H]1CCCN1C[C@H](O)[C@H](Cc1ccccc1)NC(=O)[C@H](CC(N)=O)NC(=O)OCc1ccccc1 | 300 nM | 300 nM
CC[C@H](C)[C@H](NC(=O)[C@@H]1CCCN1CC(O)[C@H](Cc1ccccc1)NC(=O)[C@H](CC(N)=O)NC(=O)[C@H](CC(C)C)NC(=O)[C@H](CO)NC(C)=O)C(=O)OC (stereo partly drawn) (Ac-SLN[X1]I-OMe) | 420 nM | 420 nM
CC[C@H](C)[C@H](NC(=O)[C@@H]1CCCN1C[C@H](O)[C@H](Cc1ccccc1)NC(=O)[C@H](CC(N)=O)NC(=O)OCc1ccccc1)C(=O)N[C@H](C(=O)OC)C(C)C | 13 nM | 13 nM
CC(C)(C)OC(=O)[C@@H]1CCCN1C[C@@H](O)[C@H](Cc1ccccc1)NC(=O)[C@H](CC(N)=O)NC(=O)OCc1ccccc1 | 140 nM | 140 nM
CC(C)(C)NC(=O)C1CC2CCCCC2CN1C[C@H](O)[C@H](Cc1ccccc1)NC(=O)[C@H](CC(N)=O)NC(=O)OCc1ccccc1 (stereo partly drawn) | > 100 nM | > 100 nM
CC[C@H](C)[C@H](NC(=O)C1CC2CCCCC2CN1C[C@H](O)[C@H](Cc1ccccc1)NC(=O)[C@H](CC(N)=O)NC(=O)OCc1ccccc1)C(=O)N[C@H](C(=O)OC)C(C)C (stereo partly drawn) | > 100 nM | > 100 nM
CC(C)(C)NC(=O)C1CC2CCCCC2CN1C[C@@H](O)[C@H](Cc1ccccc1)NC(=O)[C@H](CC(N)=O)NC(=O)OCc1ccccc1 (stereo partly drawn) | < 2.7 nM | < 2.7 nM
CC[C@H](C)[C@H](NC(=O)[C@@H]1CCCN1C[C@@H](O)[C@H](Cc1ccccc1)NC(=O)[C@H](CC(N)=O)NC(=O)OCc1ccccc1)C(=O)N[C@H](C(=O)OC)C(C)C | > 100 nM | > 100 nM
CC[C@H](C)[C@H](NC(=O)C1CC2CCCCC2CN1C[C@@H](O)[C@H](Cc1ccccc1)NC(=O)[C@H](CC(N)=O)NC(=O)OCc1ccccc1)C(=O)N[C@H](C(=O)OC)C(C)C (stereo partly drawn) | > 100 nM | > 100 nM
